Laboratory results reported in US20260007599A1, “TICAGRELOR IV FORMULATIONS FOR USE IN THE TREATMENT OF GRAM-POSITIVE BACTEREMIA” (Hyloris Developments SA, priority 2023, published 2026).

Experiments:
[1] = tested on: methicillin-resistant Staphylococcus epidermis (MRSE); settings: ex-vivo; cited from earlier work
[2] = Impact of packaging material on stability, 40° C./75% RH; assay type: physicochemical; set-up: Assay: unit not given here; settings: for Acetal impurity / Amine impurity / Assay / Description / Regiomer / Sum impurities >0.05 / Total (impurity) / Triol impurity / pH: HPβCD 32.5% w/w, 5 mM pH 7.5 phosphate buffer, 40° C./75% RH
Protocol: To study the potential impact of the packaging material on the stability of the ticagrelor-cyclodextrin inclusion complex, a composition with 32.5% w/w HPβCD was prepared with procedures and precaution's similar to previous trials; samples were stored in transparent clear glass vials and amber colored glass vials at a temperature of 40° C./75% RH.

[3] = pH, osmolality, assay and impurities of undiluted batches; impact of buffer strength; assay type: physicochemical
Protocol: From the results obtained in Example 4 it follows that the concentration of excipients may be such that the resulting ticagrelor solution is hypertonic. The osmolality and pH of several batches was checked. […] In addition, a screening was conducted on the impact of buffer strength on pH and osmolality.

[4] = Impact of ticagrelor particle size on dissolution; assay type: physicochemical
Protocol: In a further example the impact of particle size on solubility was tested. Two different particle size diameters for the ticagrelor active ingredient were screened, 5.5 and 15 micrometers. The pH and osmolality were not affected.

[5] = HPβCD 22.5% w/w, 19 mM phosphate buffer pH 7.5
[6] = HPβCD 25.0% w/w, 19 mM phosphate buffer pH 7.5
[7] = HPβCD 27.5% w/w, 19 mM phosphate buffer pH 7.5
[8] = HPβCD 30.0% w/w, 19 mM phosphate buffer pH 7.5
[9] = HPβCD 32.5% w/w, 19 mM phosphate buffer pH 7.5
[10] = phosphate buffer pH 7.5 strength 0.19 mM
[11] = phosphate buffer pH 7.5 strength 5 mM
[12] = phosphate buffer pH 7.5 strength 10 mM
[13] = phosphate buffer pH 7.5 strength 19 mM
[14] = particle distribution D90 5.5 μm, micronized
[15] = particle distribution D90 15 μm, unmicronized

In the case of `CCCSc1nc(N[C@@H]2C[C@H]2c2ccc(F)c(F)c2)c2nnn([C@@H]3C[C@H](OCCO)[C@@H](O)[C@H]3O)c2n1` [ticagrelor, (1S,2S,3R,5S)-3-{7-[(1R,2S)-2-(3,4-difluorophenyl)cyclopropylamino]5-(propylthio)-3H-(1,2,3)triazolo (4,5-D)pyrimidin-3-yl}-5-(2 hydroxyethoxy) cyclopentane-1,2-diol], the minimal bactericidal concentration [1] is given as 30 microgram/ml, the “difference between clear and amber glass vials” value ([2]; accelerated storage stability test, after 3 months) is given as “no significant difference” and the “number of different impurities developed on storage” value ([2]; accelerated storage stability test, without the cyclodextrin) is given as 6 to 8. It also gave an Acetal impurity ([2]; amber glass vials, 1 M) of 0.05%, an Amine impurity ([2]; amber glass vials, 1 M) of 0.04% and an Assay ([2]; amber glass vials, 1 M) of 100.24. The Description ([2]; amber glass vials, 1 M) was “clear”, the Regiomer ([2]; amber glass vials, 1 M) was 0.01% and the “Sum impurities >0.05” value ([2]; amber glass vials, 1 M) was 0.05%. For the same compound, the “Total (impurity)” value ([2]; amber glass vials, 1 M) was 0.22%, the Triol impurity ([2]; amber glass vials, 1 M) was 0.02% and the pH ([2]; amber glass vials, 1 M) was 7.70. It also gave an Acetal impurity ([2]; amber glass vials, 2 M) of 0.04%, an Amine impurity ([2]; amber glass vials, 2 M) of 0.04% and an Assay ([2]; amber glass vials, 2 M) of 99.89. For the same compound, the Description ([2]; amber glass vials, 2 M) was “clear”, the Regiomer ([2]; amber glass vials, 2 M) was 0.02% and the “Sum impurities >0.05” value ([2]; amber glass vials, 2 M) was 0.00%. For the same compound, the “Total (impurity)” value ([2]; amber glass vials, 2 M) was 0.28%, the Triol impurity ([2]; amber glass vials, 2 M) was 0.04% and the pH ([2]; amber glass vials, 2 M) was 7.69. The Acetal impurity ([2]; amber glass vials, 3 M) was 0.05%, the Amine impurity ([2]; amber glass vials, 3 M) was 0.06% and the Assay ([2]; amber glass vials, 3 M) was 98.93. The Description ([2]; amber glass vials, 3 M) was “clear”, the Regiomer ([2]; amber glass vials, 3 M) was 0.04% and the “Sum impurities >0.05” value ([2]; amber glass vials, 3 M) was 0.16%. The “Total (impurity)” value ([2]; amber glass vials, 3 M) was 0.33%, the Triol impurity ([2]; amber glass vials, 3 M) was 0.05% and the pH ([2]; amber glass vials, 3 M) was 7.66. It also gave an Acetal impurity ([2]; amber glass vials, T0) of 0.05%, an Amine impurity ([2]; amber glass vials, T0) of 0.04% and an Assay ([2]; amber glass vials, T0) of 98.34. The Description ([2]; amber glass vials, T0) was “clear”, the Regiomer ([2]; amber glass vials, T0) was 0.00% and the “Sum impurities >0.05” value ([2]; amber glass vials, T0) was 0.18%. For the same compound, the “Total (impurity)” value ([2]; amber glass vials, T0) was 0.40%, the Triol impurity ([2]; amber glass vials, T0) was 0.04% and the pH ([2]; amber glass vials, T0) was 7.66. For the same compound, the Acetal impurity ([2]; clear glass vials, 1 M) was 0.04%, the Amine impurity ([2]; clear glass vials, 1 M) was 0.04% and the Assay ([2]; clear glass vials, 1 M) was 101.71. The Description ([2]; clear glass vials, 1 M) was “clear”, the Regiomer ([2]; clear glass vials, 1 M) was 0.01% and the “Sum impurities >0.05” value ([2]; clear glass vials, 1 M) was 0.00%. The “Total (impurity)” value ([2]; clear glass vials, 1 M) was 0.22%, the Triol impurity ([2]; clear glass vials, 1 M) was 0.03% and the pH ([2]; clear glass vials, 1 M) was 7.65. The Acetal impurity ([2]; clear glass vials, 2 M) was 0.04%, the Amine impurity ([2]; clear glass vials, 2 M) was 0.04% and the Assay ([2]; clear glass vials, 2 M) was 99.69. The Description ([2]; clear glass vials, 2 M) was “clear”, the Regiomer ([2]; clear glass vials, 2 M) was 0.02% and the “Sum impurities >0.05” value ([2]; clear glass vials, 2 M) was 0.05%. For the same compound, the “Total (impurity)” value ([2]; clear glass vials, 2 M) was 0.28%, the Triol impurity ([2]; clear glass vials, 2 M) was 0.05% and the pH ([2]; clear glass vials, 2 M) was 7.63. It also gave an Acetal impurity ([2]; clear glass vials, 3 M) of 0.05%, an Amine impurity ([2]; clear glass vials, 3 M) of 0.06% and an Assay ([2]; clear glass vials, 3 M) of 98.25. For the same compound, the Description ([2]; clear glass vials, 3 M) was “clear”, the Regiomer ([2]; clear glass vials, 3 M) was 0.04% and the “Sum impurities >0.05” value ([2]; clear glass vials, 3 M) was 0.16%. For the same compound, the “Total (impurity)” value ([2]; clear glass vials, 3 M) was 0.33%, the Triol impurity ([2]; clear glass vials, 3 M) was 0.05% and the pH ([2]; clear glass vials, 3 M) was 7.58. The Acetal impurity ([2]; clear glass vials, T0) was 0.05%, the Amine impurity ([2]; clear glass vials, T0) was 0.04% and the Assay ([2]; clear glass vials, T0) was 98.34. The Description ([2]; clear glass vials, T0) was “clear”, the Regiomer ([2]; clear glass vials, T0) was 0.00% and the “Sum impurities >0.05” value ([2]; clear glass vials, T0) was 0.22%. The “Total (impurity)” value ([2]; clear glass vials, T0) was 0.40%, the Triol impurity ([2]; clear glass vials, T0) was 0.05% and the pH ([2]; clear glass vials, T0) was 7.65. It also gave an Assay [3, 5] of 98.15%, an Osmolality undiluted [3, 5] of 392 mOsm/kg and a Total impurities [3, 5] of 0.39%. The pH undiluted [3, 5] was 7.67, the Assay [3, 6] was 103.23% and the Osmolality undiluted [3, 6] was 493 mOsm/kg. For the same compound, the Total impurities [3, 6] was 0.41%, the pH undiluted [3, 6] was 7.69 and the Assay [3, 7] was 104.27%. The Osmolality undiluted [3, 7] was 549 mOsm/kg, the Total impurities [3, 7] was 0.42% and the pH undiluted [3, 7] was 7.69. The Assay [3, 8] was 107.64%, the Osmolality undiluted [3, 8] was 638 mOsm/kg and the Total impurities [3, 8] was 0.44%. It also gave a pH undiluted [3, 8] of 7.74, an Assay [3, 9] of 99.26% and an Osmolality undiluted [3, 9] of 813 mOsm/kg. For the same compound, the Total impurities [3, 9] was 0.41%, the pH undiluted [3, 9] was 7.68 and the Assay [3, 10] was 102.23%. For the same compound, the Osmolality sample [3, 10] was 809 mOsm/kg, the Total impurities [3, 10] was 0.42% and the pH sample [3, 10] was 7.18. For the same compound, the Assay [3, 11] was 100.49%, the Osmolality sample [3, 11] was 703 mOsm/kg and the Total impurities [3, 11] was 0.40%. The pH sample [3, 11] was 7.66, the Assay [3, 12] was 102.98% and the Osmolality sample [3, 12] was 724 mOsm/kg. It also gave a Total impurities [3, 12] of 0.42%, a pH sample [3, 12] of 7.69 and an Assay [3, 13] of 102.58%. The Osmolality sample [3, 13] was 758 mOsm/kg, the Total impurities [3, 13] was 0.42% and the pH sample [3, 13] was 7.70. For the same compound, the Dissolution time [4, 14] was 33 min, the Osmolality [4, 14] was 751 mOsm/kg and the pH [4, 14] was 7.68. It also gave a Dissolution time [4, 15] of 125 min, an Osmolality [4, 15] of 753 mOsm/kg and a pH [4, 15] of 7.70.
